Source: ChEMBL document CHEMBL1157646, “Melanogenesis inhibitors from the desert plant Anastatica hierochuntica in B16 melanoma cells” (Bioorg Med Chem, 2010)
Activity calls are given as the source filed them. The rule behind the calls is not given here.

test system: not listed separately; experiment: Toxicity in mouse B16-4A5 cells assessed as inhibition of cell proliferation at 10 uM in presence of 1 mM theophylline after 72 hrs by WST8 dye reduction assay; format: cell-based; conditions: not given

Row | SMILES | inhibition at 72 h, 10 µM [%]
1 | COc1cc([C@H]2Oc3ccc([C@H]4Oc5cc(O)cc(O)c5C(=O)[C@@H]4O)cc3O[C@@H]2CO)ccc1O [ISOSILYBIN A] | -2.5

test system: not listed separately; experiment: Effect on tyrosinase mRNA expression in mouse B16-4A5 cells assessed as tyrosinase mRNA/beta-actin mRNA expression ratio at 10 uM in presence of 1 mM theophylline after 72 hrs by RT-PCR; format: functional; conditions: not given

Row | SMILES | Ratio
2 | COc1cc([C@H]2Oc3ccc([C@H]4Oc5cc(O)cc(O)c5C(=O)[C@@H]4O)cc3O[C@@H]2CO)ccc1O [ISOSILYBIN A] | 0.85

test system: not listed separately; experiment: Effect on TRP1 mRNA expression in mouse B16-4A5 cells assessed as TRP1 mRNA/beta-actin mRNA expression ratio at 30 uM in presence of 1 mM theophylline after 72 hrs by RT-PCR; format: functional; conditions: not given

Row | SMILES | Ratio
3 | COc1cc([C@H]2Oc3ccc([C@H]4Oc5cc(O)cc(O)c5C(=O)[C@@H]4O)cc3O[C@@H]2CO)ccc1O [ISOSILYBIN A] | 0.6

test system: not listed separately; experiment: cells; conditions: Mus musculus, B16-4A5, 72 h, read-out: INH
Description: Inhibition of theophylline-stimulated melanogenesis in mouse B16-4A5 cells at 3 uM after 72 hrs

Row | SMILES | inhibition at 3 µM [%]
4 | COc1cc([C@H]2Oc3ccc([C@H]4Oc5cc(O)cc(O)c5C(=O)[C@@H]4O)cc3O[C@@H]2CO)ccc1O [ISOSILYBIN A] | 19.8

test system: not listed separately; experiment: Effect on TRP1 mRNA expression in mouse B16-4A5 cells assessed as TRP1 mRNA/beta-actin mRNA expression ratio at 10 uM in presence of 1 mM theophylline after 72 hrs by RT-PCR; format: functional; conditions: not given

Row | SMILES | Ratio
5 | COc1cc([C@H]2Oc3ccc([C@H]4Oc5cc(O)cc(O)c5C(=O)[C@@H]4O)cc3O[C@@H]2CO)ccc1O [ISOSILYBIN A] | 1.12

test system: not listed separately; experiment: cells; conditions: Mus musculus, B16-4A5, 72 h, read-out: INH; remark: another data set of the same source
Description: Inhibition of theophylline-stimulated melanogenesis in mouse B16-4A5 cells at 30 uM after 72 hrs

Row | SMILES | inhibition at 30 µM [%]
6 | COc1cc([C@H]2Oc3ccc([C@H]4Oc5cc(O)cc(O)c5C(=O)[C@@H]4O)cc3O[C@@H]2CO)ccc1O [ISOSILYBIN A] | 72.1

test system: not listed separately; experiment: Effect on tyrosinase mRNA expression in mouse B16-4A5 cells assessed as tyrosinase mRNA/beta-actin mRNA expression ratio at 1 uM in presence of 1 mM theophylline after 72 hrs by RT-PCR; format: functional; conditions: not given

Row | SMILES | Ratio
7 | COc1cc([C@H]2Oc3ccc([C@H]4Oc5cc(O)cc(O)c5C(=O)[C@@H]4O)cc3O[C@@H]2CO)ccc1O [ISOSILYBIN A] | 0.73

test system: not listed separately; experiment: Effect on TRP2 mRNA expression in mouse B16-4A5 cells assessed as TRP2 mRNA/beta-actin mRNA expression ratio at 1 uM in presence of 1 mM theophylline after 72 hrs by RT-PCR; format: functional; conditions: not given

Row | SMILES | Ratio
8 | COc1cc([C@H]2Oc3ccc([C@H]4Oc5cc(O)cc(O)c5C(=O)[C@@H]4O)cc3O[C@@H]2CO)ccc1O [ISOSILYBIN A] | 0.68

test system: not listed separately; experiment: Toxicity in mouse B16-4A5 cells assessed as inhibition of cell proliferation at 1 uM in presence of 1 mM theophylline after 72 hrs by WST8 dye reduction assay; format: cell-based; conditions: not given

Row | SMILES | inhibition at 72 h, 1 µM [%]
9 | COc1cc([C@H]2Oc3ccc([C@H]4Oc5cc(O)cc(O)c5C(=O)[C@@H]4O)cc3O[C@@H]2CO)ccc1O [ISOSILYBIN A] | -2.2

test system: not listed separately; experiment: cells; conditions: Mus musculus, B16-4A5, 72 h, read-out: INH; remark: another data set of the same source
Description: Inhibition of theophylline-stimulated melanogenesis in mouse B16-4A5 cells at 10 uM after 72 hrs

Row | SMILES | inhibition at 10 µM [%]
10 | COc1cc([C@H]2Oc3ccc([C@H]4Oc5cc(O)cc(O)c5C(=O)[C@@H]4O)cc3O[C@@H]2CO)ccc1O [ISOSILYBIN A] | 50.2

biological target: T1, Tyrosinase (Agaricus bisporus) (UniProt O42713); experiment: Inhibition of mushroom tyrosinase at 1 uM; conditions: not given
T1 sequence (whole entry): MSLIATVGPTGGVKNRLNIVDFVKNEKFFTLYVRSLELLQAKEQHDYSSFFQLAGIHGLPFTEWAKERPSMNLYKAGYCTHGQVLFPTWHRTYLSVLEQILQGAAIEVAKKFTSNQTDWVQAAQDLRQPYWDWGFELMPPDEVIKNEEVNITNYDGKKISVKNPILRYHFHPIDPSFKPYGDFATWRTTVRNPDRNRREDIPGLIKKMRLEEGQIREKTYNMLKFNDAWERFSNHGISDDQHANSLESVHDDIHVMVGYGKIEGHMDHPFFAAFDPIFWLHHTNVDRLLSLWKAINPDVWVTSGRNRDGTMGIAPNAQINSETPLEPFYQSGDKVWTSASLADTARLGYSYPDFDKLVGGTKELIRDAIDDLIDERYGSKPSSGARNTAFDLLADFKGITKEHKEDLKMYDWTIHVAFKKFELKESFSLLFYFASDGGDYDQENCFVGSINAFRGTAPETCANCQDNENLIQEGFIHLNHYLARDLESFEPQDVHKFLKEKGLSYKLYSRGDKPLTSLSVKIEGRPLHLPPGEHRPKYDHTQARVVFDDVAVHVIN

Row | inhibition [%] | SMILES
11 | 5.1 | COc1cc([C@H]2Oc3ccc([C@H]4Oc5cc(O)cc(O)c5C(=O)[C@@H]4O)cc3O[C@@H]2CO)ccc1O [ISOSILYBIN A]

test system: not listed separately; experiment: Effect on TRP1 mRNA expression in mouse B16-4A5 cells assessed as TRP1 mRNA/beta-actin mRNA expression ratio at 3 uM in presence of 1 mM theophylline after 72 hrs by RT-PCR; format: functional; conditions: not given

Row | SMILES | Ratio
12 | COc1cc([C@H]2Oc3ccc([C@H]4Oc5cc(O)cc(O)c5C(=O)[C@@H]4O)cc3O[C@@H]2CO)ccc1O [ISOSILYBIN A] | 1.26

test system: not listed separately; experiment: Effect on TRP2 mRNA expression in mouse B16-4A5 cells assessed as TRP2 mRNA/beta-actin mRNA expression ratio at 10 uM in presence of 1 mM theophylline after 72 hrs by RT-PCR; format: functional; conditions: not given

Row | SMILES | Ratio
13 | COc1cc([C@H]2Oc3ccc([C@H]4Oc5cc(O)cc(O)c5C(=O)[C@@H]4O)cc3O[C@@H]2CO)ccc1O [ISOSILYBIN A] | 0.63

test system: not listed separately; experiment: Toxicity in mouse B16-4A5 cells assessed as inhibition of cell proliferation at 3 uM in presence of 1 mM theophylline after 72 hrs by WST8 dye reduction assay; format: cell-based; conditions: not given

Row | SMILES | inhibition at 72 h, 3 µM [%]
14 | COc1cc([C@H]2Oc3ccc([C@H]4Oc5cc(O)cc(O)c5C(=O)[C@@H]4O)cc3O[C@@H]2CO)ccc1O [ISOSILYBIN A] | -1.5

test system: not listed separately; experiment: Effect on TRP2 mRNA expression in mouse B16-4A5 cells assessed as TRP2 mRNA/beta-actin mRNA expression ratio at 3 uM in presence of 1 mM theophylline after 72 hrs by RT-PCR; format: functional; conditions: not given

Row | SMILES | Ratio
15 | COc1cc([C@H]2Oc3ccc([C@H]4Oc5cc(O)cc(O)c5C(=O)[C@@H]4O)cc3O[C@@H]2CO)ccc1O [ISOSILYBIN A] | 0.63

test system: not listed separately; experiment: Toxicity in mouse B16-4A5 cells assessed as inhibition of cell proliferation at 30 uM in presence of 1 mM theophylline after 72 hrs by WST8 dye reduction assay; format: cell-based; conditions: not given

Row | SMILES | inhibition at 72 h, 30 µM [%]
16 | COc1cc([C@H]2Oc3ccc([C@H]4Oc5cc(O)cc(O)c5C(=O)[C@@H]4O)cc3O[C@@H]2CO)ccc1O [ISOSILYBIN A] | 16

biological target: T1, Tyrosinase (Agaricus bisporus); experiment: Inhibition of mushroom tyrosinase at 3 uM; conditions: not given

Row | inhibition [%] | SMILES
17 | 7 | COc1cc([C@H]2Oc3ccc([C@H]4Oc5cc(O)cc(O)c5C(=O)[C@@H]4O)cc3O[C@@H]2CO)ccc1O [ISOSILYBIN A]

test system: not listed separately; experiment: Effect on tyrosinase mRNA expression in mouse B16-4A5 cells assessed as tyrosinase mRNA/beta-actin mRNA expression ratio at 3 uM in presence of 1 mM theophylline after 72 hrs by RT-PCR; format: functional; conditions: not given

Row | SMILES | Ratio
18 | COc1cc([C@H]2Oc3ccc([C@H]4Oc5cc(O)cc(O)c5C(=O)[C@@H]4O)cc3O[C@@H]2CO)ccc1O [ISOSILYBIN A] | 0.97

test system: not listed separately; experiment: Effect on TRP1 mRNA expression in mouse B16-4A5 cells assessed as TRP1 mRNA/beta-actin mRNA expression ratio at 1 uM in presence of 1 mM theophylline after 72 hrs by RT-PCR; format: functional; conditions: not given

Row | SMILES | Ratio
19 | COc1cc([C@H]2Oc3ccc([C@H]4Oc5cc(O)cc(O)c5C(=O)[C@@H]4O)cc3O[C@@H]2CO)ccc1O [ISOSILYBIN A] | 1.11

test system: not listed separately; experiment: cells; conditions: Mus musculus, B16-4A5, 72 h, read-out: INH; remark: another data set of the same source
Description: Inhibition of theophylline-stimulated melanogenesis in mouse B16-4A5 cells at 1 uM after 72 hrs

Row | SMILES | inhibition at 1 µM [%]
20 | COc1cc([C@H]2Oc3ccc([C@H]4Oc5cc(O)cc(O)c5C(=O)[C@@H]4O)cc3O[C@@H]2CO)ccc1O [ISOSILYBIN A] | 11.7

test system: not listed separately; experiment: Effect on TRP2 mRNA expression in mouse B16-4A5 cells assessed as TRP2 mRNA/beta-actin mRNA expression ratio at 30 uM in presence of 1 mM theophylline after 72 hrs by RT-PCR; format: functional; conditions: not given

Row | SMILES | Ratio
21 | COc1cc([C@H]2Oc3ccc([C@H]4Oc5cc(O)cc(O)c5C(=O)[C@@H]4O)cc3O[C@@H]2CO)ccc1O [ISOSILYBIN A] | 0.36

test system: not listed separately; experiment: Effect on tyrosinase mRNA expression in mouse B16-4A5 cells assessed as tyrosinase mRNA/beta-actin mRNA expression ratio at 30 uM in presence of 1 mM theophylline after 72 hrs by RT-PCR; format: functional; conditions: not given

Row | SMILES | Ratio
22 | COc1cc([C@H]2Oc3ccc([C@H]4Oc5cc(O)cc(O)c5C(=O)[C@@H]4O)cc3O[C@@H]2CO)ccc1O [ISOSILYBIN A] | 0.56

biological target: T1, Tyrosinase (Agaricus bisporus); experiment: Inhibition of mushroom tyrosinase assessed as inhibition of melanin production from dopachrome by autoxidation at 100 uM; conditions: not given

Row | SMILES | inhibition
23 | COc1cc([C@H]2Oc3ccc([C@H]4Oc5cc(O)cc(O)c5C(=O)[C@@H]4O)cc3O[C@@H]2CO)ccc1O [ISOSILYBIN A] | inactive
